According to patent publication US8309685B2 (Celgene Avilomics Research, Inc., priority 2007, dated 2012):
Read-outs that look alike come from different tables or passages of the source.

Columns and labels:
[1] = molecular target: T1, wild type HCV NS3/4A 1b protease enzyme (Hepatitis C virus genotype 1b, UniProt P26663); assay: HCV Protease FRET Assay (IC50_APP), wild type; format: biochemical
T1 construct: 10× stocks of NS3/4A protease enzyme from Bioenza (Mountain View, Calif.); purchased Bioenza (Mountain View, Calif.)
Experimental: (§1) HCV Protease FRET Assay for WT and Mutated NS3/4A 1b Enzymes (IC50—APP).
(§2) The following protocol was used to generate “apparent” IC50 (IC50—APP) values as depicted in Table 6, below. […] 5 μL of each enzyme were added to Corning (#3575) 384-well, black, microtiter plates (Corning, N.Y.) after spotting a 0.5 μL volume of 50% DMSO and serially diluted compounds prepared in 50% DMSO. Protease reactions were immediately started after enzyme addition with the addition of 45 μL of the FRET substrate and monitored for 60-90 minutes at λex485/λem520 in a Synergy^4 plate reader from BioTek (Winooski, Vt.). At the conclusion of each assay, progress curves from each well were examined for linear reaction kinetics and fit statistics (R^2, 95% confidence intervals, absolute sum of squares).
(§3) The compound numbers correspond to the compound numbers in Table 3. […] ;

[2] = molecular target: T2, R155K mutant of the HCV NS3/4A 1b protease enzyme (Hepatitis C virus genotype 1b, UniProt P26663, R1181K); assay: HCV Protease FRET Assay (IC50_APP), R155K mutant; format: biochemical; conditions: apparent IC50, R155K mutant; read-out: IC50_APP, HCV R155K
T2 construct: 10× stocks of NS3/4A protease enzyme from Bioenza (Mountain View, Calif.); purchased Bioenza (Mountain View, Calif.)
Experimental: as §1, §2, §3

[3] = system: HCV RNA replicon in cell line ET (luc-ubi-neo/ET), human Huh7 hepatoma; assay: Method A: HCV RNA replicon antiviral assay (luciferase, ET cell line); format: cell-based, Hepatitis C virus; conditions: Hepatitis C virus, Huh-7, assay described in Example 22; for IC50: read-out: Replicon (IC50)
Experimental: The compounds were assayed to evaluate the antiviral activity and cytotoxicity of compounds in vitro using HCV RNA replicons. This assay used the cell line ET (luc-ubi-neo/ET), which is a human Huh7 hepatoma cell line that contains an HCV RNA replicon with a stable luciferase (Luc) reporter and three cell culture-adaptive mutations. […]
The ET cell line was grown in Dulbecco's modified essential media (DMEM), 10% fetal bovine serum (FBS), 1% penicillin-streptomycin (pen-strep), 1% glutamine, 250 μg/ml G418 in a 5% CO2 incubator at 37° C. All cell culture reagents were obtained from Mediatech (Manassas, Va.). Cells were trypsinized (1% trypsin:EDTA) and plated out at 5×10^3 cells/well in white 96-well assay plates (Costar) dedicated to cell number (cytotoxicity) or antiviral activity assessments. Drugs were added at six 3-fold concentrations each and the assay was run in DMEM, 5% FBS, 1% pen-strep, 1% glutamine. Human interferon alpha-2b (PBL Biolabs, New Brunswick, N.J.) was included in each run as a positive control compound. Cells were processed 72 hr post drug addition when the cells are still subconfluent. Antiviral activity was measured by analyzing replicon-derived luciferase activity using the Steady-Glo Luciferase Assay System (Promega, Madison, Wis.) according to manufacturer's instruction. The number of cells in each well was determined by CytoTox-1 reagent (Promega). Compound profile was derived by calculating applicable EC50 (effective concentration inhibiting virus replication by 50%), EC90 (effective concentration inhibiting virus replication by 90%), IC50 (concentration decreasing cell viability by 50%) and SI50 (selective index: […]) values.

[4] = molecular target: T3, D168A mutant of the HCV NS3/4A 1b protease enzyme (Hepatitis C virus genotype 1b, UniProt P26663, D1194A); assay: HCV Protease FRET Assay (IC50_APP), D168A mutant; format: biochemical; conditions: apparent IC50, D168A mutant; read-out: IC50_APP, HCV D168A
T3 construct: 10× stocks of NS3/4A protease enzyme from Bioenza (Mountain View, Calif.); purchased Bioenza (Mountain View, Calif.)
Experimental: as §1, §2, §3

[5] = molecular target: T4, A156T mutant of the HCV NS3/4A 1b protease enzyme (Hepatitis C virus genotype 1b, UniProt P26663, A1182T); assay: HCV Protease FRET Assay (IC50_APP), A156T mutant; format: biochemical; conditions: apparent IC50, A156T mutant; read-out: IC50_APP, HCV A156T
T4 construct: 10× stocks of NS3/4A protease enzyme from Bioenza (Mountain View, Calif.); purchased Bioenza (Mountain View, Calif.)
Experimental: as §1, §2, §3

[6] = system: HCV RNA replicon in cell line ET (luc-ubi-neo/ET), human Huh7 hepatoma; assay: Luciferase Assay (Example 35), replicon-derived luciferase activity; format: cell-based; conditions: Hepatitis C virus, Huh-7, assay described in Example 35
Experimental: The compounds were assayed to evaluate the antiviral activity and cytotoxicity of compounds using replicon-derived luciferase activity. This assay used the cell line ET (luc-ubi-neo/ET), which is a human Huh7 hepatoma cell line that contains an HCV RNA replicon with a stable luciferase (Luc) reporter and cell culture-adaptive mutations. The ET cell line was grown in a 5% CO2 incubator at 37° C. in Dulbecco's modified essential media (DMEM) supplemented with 2 mM L-glutamine, nonessential amino acids, 100 U of penicillin/ml, 100 μg of streptomycin/mL, and 10% fetal bovine serum. G418 (Geneticin; Invitrogen) was added at a final concentration of 400 ug//mL.
All cell culture reagents were obtained from Invitrogen (Carlsbad). Cells were trypsinized (1% trypsin:EDTA) and plated out at 5×10^3 cells/well in white 96-well assay plates (Costar) dedicated to cell number (cytotoxicity) or antiviral activity assessments. Test compounds were added at six 3-fold concentrations each and the assay was run in DMEM, 5% FBS, 1% pen-strep, 1% glutamine, 1% non essential amino acid. Human interferon alpha-2b (PBL Biolabs, New Brunswick, N.J.) was included in each run as a positive control compound. Cells were processed 72 hr post test compound addition when the cells were still subconfluent. Antiviral activity was measured by analyzing replicon-derived luciferase activity using the Steady-Glo Luciferase Assay System (Promega, Madison, Wis.) according to manufacturer's instruction. The number of cells in each well was determined by Cell Titer Blue Assay (Promega). Compound profile was derived by calculating applicable EC50 (effective concentration inhibiting virus replication by 50%), EC90 (effective concentration inhibiting virus replication by 90%), IC50 (concentration decreasing cell viability by 50%) and SI50 (selective index: […]) values.

[7] = read-out: IC50_APP, WT, apparent IC50, wild type NS3/4A 1b

| Compound | IC50 [1] [nM] | IC50 [2] [nM] | IC90 [3] [nM] | IC50 [3] [nM] | IC50 [4] [nM] | IC50 [5] [nM] | IC50 [1, 7] [nM] | EC90 [6] [nM] | EC50 [6] [nM] |
| --- | --- | --- | --- | --- | --- | --- | --- | --- | --- |
| C=CC(=O)NC[C@@H]1NC(=O)OCCC/C=C/c2ccc3ccnc(c3c2)O[C@@H]2C[C@@H](C(=O)N[C@]3(C(=O)NS(=O)(=O)C4CC4)C[C@H]3C=C)N(C2)C1=O [Compound I-77, (1R,2S)-N-1-cyclopropylsulfonylcarboxamido-2-vinylcyclopropyl (2R,4S,7S,14E)-7-acrylamidomethyl-2H-16,18-etheno-2,5-methano-11H-pyrido[2,3-k][1,10,3,6]dioxadiazacyclononadecine-4-ylcarboxamide] | < 10 | 10 to 100 | 10 to 100 | < 10 | 100 to 1000 | 100 to 1000 | – | – | – |
| C=CC(=O)N(C)C[C@@H]1NC(=O)OCCC/C=C/c2ccc3ccnc(c3c2)O[C@@H]2C[C@@H](C(=O)N[C@]3(C(=O)NS(=O)(=O)C4CC4)C[C@H]3C=C)N(C2)C1=O [Compound I-83] | 10 to 100 | 1000 to 10000 | – | – | 1000 to 10000 | – | – | – | – |
| C=CC(=O)NC[C@H](NC(=O)OC1CCCC1)C(=O)N1C[C@H](Oc2nccc3ccc(-c4cccs4)cc23)C[C@H]1C(=O)N[C@]1(C(=O)NS(=O)(=O)C2CC2)C[C@H]1C=C [Compound I-88, Cyclopentyl-(S)-3-acrylamido-1-((2S,4R)-2-((1R,2S)-1-(cyclopropylsulfonylcarbamoyl)-2-vinylcyclopropylcarbamoyl)-4-(7-(thiophen-2-yl)isoquinolin-1-yloxy)pyrrolidin-1-yl)-1-oxopropan-2-ylcarbamate] | < 10 | 1000 to 10000 | 10 to 100 | < 10 | 100 to 1000 | – | – | – | – |
| C=C[C@@H]1C[C@]1(NC(=O)[C@@H]1C[C@@H](Oc2nccc3ccc(Br)cc23)CN1C(=O)[C@H](CCC(=O)/C(C)=C/C)NC(=O)OC(C)(C)C)C(=O)NS(=O)(=O)C1CC1 [Compound I-91, {1-[4-(7-Bromo-isoquinolin-1-yloxy)-2-(1-cyclopropanesulfonylaminocarbonyl-2-vinyl-cyclopropylcarbamoyl)-pyrrolidine-1-carbonyl]-5-methyl-4-oxo-hept-5-enyl}-carbamic acid tert-butyl ester] | – | 100 to 1000 | – | – | 1000 to 10000 | – | < 10 | 100 to 1000 | 10 to 100 |
| C=CC(=O)NC[C@H](NC(=O)OC(C)(C)C)C(=O)N1C[C@H](Oc2nccc3cc(OC)ccc23)C[C@H]1C(=O)N[C@]1(C(=O)NS(=O)(=O)C2CC2)C[C@H]1C=C [Compound I-92, {1-(Acryloylamino-methyl)-2-[2-(1-cyclopropanesulfonylaminocarbonyl-2-vinyl-cyclopropylcarbamoyl)-4-(6-methoxy-isoquinolin-1-yloxy)-pyrrolidin-1-yl]-2-oxo-ethyl}-carbamic acid tert-butyl ester] | – | 10 to 100 | – | – | 100 to 1000 | – | < 10 | 100 to 1000 | 10 to 100 |
| C=CC(=O)NC[C@H](NC(=O)CCCC[C@H]1SC[C@H]2NC(=O)N[C@H]21)C(=O)N1C[C@H](Oc2nccc3cc(OC)ccc23)C[C@H]1C(=O)N[C@]1(C(=O)NS(=O)(=O)C2CC2)C[C@H]1C=C [Compound I-103, 1-{3-Acryloylamino-2-[5-(2-oxo-hexahydro-thieno[3,4-d]imidazol-6-yl)-pentanoylamino]-propionyl}-4-(6-methoxy-isoquinolin-1-yloxy)-pyrrolidine-2-carboxylic acid (1-cyclopropanesulfonylaminocarbonyl-2-vinyl-cyclopropyl)-amide] | – | 100 to 1000 | – | – | 10 to 100 | – | 10 to 100 | – | – |
| C=CC(=O)NC[C@H](NC(=O)CCCC(=O)NCCCOCCOCCOCCCNC(=O)CCCC[C@@H]1SC[C@@H]2NC(=O)N[C@@H]21)C(=O)N1C[C@H](Oc2nccc3cc(OC)ccc23)C[C@H]1C(=O)N[C@]1(C(=O)NS(=O)(=O)C2CC2)C[C@H]1C=C [Compound I-104] | – | 10 to 100 | – | – | 10 to 100 | – | < 10 | – | – |
| CC[C@@H]1C[C@]1(NC(=O)[C@@H]1C[C@@H](Oc2nccc3cc(OC)ccc23)CN1C(=O)[C@H](CCC(=O)C=C(C)C)NC(=O)OC(C)(C)C)C(=O)NS(=O)(=O)C1CC1 [Compound I-114] | – | 100 to 1000 | – | – | – | – | < 10 | – | 10 to 100 |
| C=CC(=O)N[C@@H](C(=O)N1C[C@H](Oc2nccc3cc(OC)ccc23)C[C@H]1C(=O)N[C@]1(C(=O)NS(=O)(=O)C2CC2)C[C@H]1C=C)C(C)(C)O [Compound I-130] | – | – | – | – | 100 to 1000 | – | 10 to 100 | – | 100 to 1000 |
| C=C[C@@H]1C[C@]1(NC(=O)[C@@H]1C[C@@H](Oc2nccc3cc(OC)ccc23)CN1C(=O)[C@H](CC(=O)/C(C)=C/C)NC(=O)OC(C)(C)C)C(=O)NS(=O)(=O)C1CC1 [Compound I-133] | – | 10 to 100 | – | – | 100 to 1000 | – | < 10 | – | – |
| C=C[C@@H]1C[C@]1(NC(=O)[C@@H]1C[C@@H](Oc2nccc3cc(OC)ccc23)CN1C(=O)[C@@H](NC(=O)OC(C)(C)C)C(C)(C)C(=O)C=C(C)C)C(=O)NS(=O)(=O)C1CC1 [Compound I-134] | – | 10 to 100 | – | – | 100 to 1000 | – | < 10 | – | – |
| C=C[C@@H]1C[C@]1(NC(=O)[C@@H]1C[C@@H](Oc2nccc3cc(OC)ccc23)CN1C(=O)[C@H](CCC(=O)/C=C/c1ccccc1)NC(=O)OC(C)(C)C)C(=O)NS(=O)(=O)C1CC1 [Compound I-137] | – | 1000 to 10000 | – | – | 1000 to 10000 | – | 10 to 100 | – | – |
| [2H]C([2H])([2H])C(=CC(=O)CC[C@H](NC(=O)OC(C)(C)C)C(=O)N1C[C@H](Oc2nccc3cc(OC)ccc23)C[C@H]1C(=O)N[C@]1(C(=O)NS(=O)(=O)C2CC2)C[C@H]1C=C)C([2H])([2H])[2H] [Compound I-142] | – | 10 to 100 | – | – | 100 to 1000 | – | < 10 | – | – |
| C=C[C@@H]1C[C@]1(NC(=O)[C@@H]1C[C@@H](Oc2nccc3cc(OC)ccc23)CN1C(=O)[C@H](CCC(=O)/C=C/C(C)(C)C)NC(=O)OC(C)(C)C)C(=O)NS(=O)(=O)C1CC1 [Compound I-143] | – | 100 to 1000 | – | – | 1000 to 10000 | – | < 10 | – | – |
